Experimental data taken from US11569513B1, “Redox flow battery carrier molecule” (Triad National Security, LLC, priority 2020, dated 2023).

What was measured:
Assay type in all cases: physicochemical
[1] = Cyclic voltammogram, negative region, 1 mM solution in 0.1M TBAPF6 in acetonitrile
Method: FIG. 2. Voltammogram of the […]/negative region of a 1 mM solution of Fe(TREN-Pic) in 0.1 M tetrabutylammonium hexafluorophosphate (TBAPF6) in acetonitrile (MeCN), obtained using a glassy carbon working electrode, a platinum wire counter electrode, and a 0.010 M AgBF4 reference electrode.
(§1) In the negative portion of a cyclic voltammogram four features at −0.93, −2.10, −2.28, and −2.55V are observed with current ratios (i[cathodic]/i[anodic]) of 1.01, 0.67, 1.17, and 1.01 respectively. These were obtained with a 1 mM solution of Fe(TREN-Pic) in 0.1M tetrabutylammonium hexafluorophosphate in acetonitrile using a glassy carbon working electrode, platinum wire counter, and a 0.01M silver tetrafluoroborate reference electrode. When the −0.93V wave is subjected to bulk electrolytic cycling over 25 repetitions, a high Coulombic efficiency is calculated (˜95%) with an unoptimized slow decay in utilization (electrons stored per redox carrier molecule) of 4% over the first ten cycles. […] This represents only the third known complex to display this behavior (JACS, 2016, 15378 and Journal of Power Sources, 2016, 681).

[2] = Bulk cycling with broadened voltage window (galvanostatic 2 electron charging and discharging); details: voltage window broadened to include the next wave; over 25 cycles
Method: FIG. 6. Galvanostatic 2 electron charging and discharging of a 1 mM solution of Fe(TREN-Pic) in 0.1 M TBAPF6 in MeCN, charging and discharging rates were both 1 mA and potential cutoffs were −2.14 V vs Ag^+ during charging and −0.4 V vs Ag^+ during discharging.
FIG. 8. Metrics obtained from bulk electrolysis displaying high coulombic efficiencies for the charge/discharge cycling and the complexes capability to reversibly store multiple electron equivalents.
as §1

[3] = Bulk electrolytic cycling (galvanostatic 1 electron charging and discharging) of the −0.93V wave; details: over the first ten cycles, unoptimized
Method: FIG. 3. Galvanostatic 1 electron charging and discharging of a 1 mM solution of Fe(TREN-Pic) in 0.1 M TBAPF6 in MeCN, charging and discharging rates were both 1 mA and potential cutoffs were −1.3 V vs Ag^+ during charging and −0.4 V vs Ag^+ during discharging.
FIG. 5. Metrics obtained from bulk electrolysis displaying high coulombic efficiencies for the charge/discharge cycling.
as §1

Fe III tris(2-aminoethyl)amine (TREN) picolinic (PIC) [Fe(TREN-Pic)]
potential of first feature in negative portion of cyclic voltammogram ([1]; 1 mM in 0.1M tetrabutylammonium hexafluorophosphate in acetonitrile, glassy carbon working electrode, platinum wire counter, 0.01M silver tetrafluoroborate reference, first feature): −0.93 V
current ratio (i[cathodic]/i[anodic]) ([1]; feature at −0.93 V): 1.01
current ratio (i[cathodic]/i[anodic]) ([1]; feature at −2.10 V): 0.67
current ratio (i[cathodic]/i[anodic]) ([1]; feature at −2.28 V): 1.17
current ratio (i[cathodic]/i[anodic]) ([1]; feature at −2.55 V): 1.01
potential of fourth feature in negative portion of cyclic voltammogram ([1]; same conditions, fourth feature): −2.55 V
potential of second feature in negative portion of cyclic voltammogram ([1]; same conditions, second feature): −2.10 V
potential of third feature in negative portion of cyclic voltammogram ([1]; same conditions, third feature): −2.28 V
decay over cycling [2]: significant decay
decay in utilization (electrons stored per redox carrier molecule) [3]: 4%
